What was measured:
PARP-1 = target: T1, PARP-1 (Homo sapiens, UniProt P09874); test: PARP enzymatic assay (HT Universal Colorimetric PARP1 Assay Kit); assay type: biochemical; conditions: read-out: PARP-1 enzymatic inhibition IC50
T1 construct: purchased
Procedure: PARP Enzymatic Assay (Following the Manual of HT Universal Colorimetric PARP1 Assay Kit).
Histone proteins were coated on a 96-well plate and incubated overnight at 4° C. After be washed 3 times with 200 ul PBST solution, the plate was blocked with a blocking solution and incubated for 30 min at room temperature, and then washed with PBST solution 3 times. A compound to be tested was treated and added to the plate. Thereafter, 20 μl of diluted PARP1 (1 nM) or 20 μl of PARP2 (3 nM) solution was added into the reaction system and incubated for 1 or 2 hours. 50 ul of streptavidin-HRP mixture (1:50) was added into the plate and incubated for 30 min at room temperature. The plate was then washed with three times with PBST buffer. 100 μl of (HRP) (Chemiluminescent substrate A and substrate B (1:1)) was added into the plate, and the plate was immediately read on a microplate reader (Envision, PerkinElmer).

HCC1937 cells = test: Cellular PARylation assay; assay type: cell-based; conditions: Homo sapiens; HCC1937 cells, compound 30 min then 1 mM H2O2 10 min; read-out: cellular PARylation EC50
Procedure: Cellular PARylation Assay
HCC1937 cells were planted into 96 well plates at 4×10^4 cells/well and incubated at 37° C. in an incubator overnight. After being treated with a test compound for 30 min, cells were then treated with 1 mM H2O2 for 10 min. The cells were washed with 200 ul pre-chilled PBS twice and fixed with 100 ul pre-chilled methanol/acetone (7:3) on ice for 30 min. After being air-dried, the plates were blocked using PBS-Tween blocking solution (0.05%) with dissolved 5% nonfat dry milk for 30 min at room temperature. The cells were incubated with anti-PAR antibody 10H (1:100) at room temperature for 1 hour followed by washing with PBS-Tween20 for 3 times; and then added into a blocking solution including goat anti-mouse fluorescein isothiocyanate (FITC)-coupled secondary antibody and 1 μg/mL DAPI to incubate away from light at room temperature for 1 hour. After being washed with PBS-Tween20 for 3 times, the plate was analyzed with a fluorescence microplate counter (Flexstation III, Molecular Device).

T1 sequence (P09874 whole entry): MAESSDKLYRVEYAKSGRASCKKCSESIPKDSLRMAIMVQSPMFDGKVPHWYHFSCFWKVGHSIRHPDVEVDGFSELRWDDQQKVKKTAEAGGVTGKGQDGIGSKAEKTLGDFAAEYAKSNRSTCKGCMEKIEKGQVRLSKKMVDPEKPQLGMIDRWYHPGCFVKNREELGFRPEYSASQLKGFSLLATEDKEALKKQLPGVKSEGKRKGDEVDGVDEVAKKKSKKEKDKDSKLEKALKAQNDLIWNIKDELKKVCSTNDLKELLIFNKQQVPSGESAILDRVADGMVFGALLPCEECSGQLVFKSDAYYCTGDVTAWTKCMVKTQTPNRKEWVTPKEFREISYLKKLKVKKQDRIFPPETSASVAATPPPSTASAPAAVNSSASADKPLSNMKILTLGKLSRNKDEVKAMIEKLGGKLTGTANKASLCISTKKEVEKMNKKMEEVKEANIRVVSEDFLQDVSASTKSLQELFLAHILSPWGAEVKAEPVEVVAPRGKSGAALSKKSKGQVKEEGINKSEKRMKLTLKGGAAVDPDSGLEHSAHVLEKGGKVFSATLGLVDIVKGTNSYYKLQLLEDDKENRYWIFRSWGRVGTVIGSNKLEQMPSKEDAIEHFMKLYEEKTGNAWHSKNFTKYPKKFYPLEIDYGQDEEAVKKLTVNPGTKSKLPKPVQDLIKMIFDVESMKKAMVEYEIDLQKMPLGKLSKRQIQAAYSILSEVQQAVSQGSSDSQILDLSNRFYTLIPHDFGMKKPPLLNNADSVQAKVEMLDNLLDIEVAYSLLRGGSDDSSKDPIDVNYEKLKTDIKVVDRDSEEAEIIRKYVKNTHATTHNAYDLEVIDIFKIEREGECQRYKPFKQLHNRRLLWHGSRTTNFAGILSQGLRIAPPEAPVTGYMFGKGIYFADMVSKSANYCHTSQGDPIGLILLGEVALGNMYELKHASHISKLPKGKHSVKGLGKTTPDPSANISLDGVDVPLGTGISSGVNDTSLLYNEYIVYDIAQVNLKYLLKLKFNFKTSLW

Row | SMILES | IC50 (PARP-1) | EC50 (HCC1937 cells)
1 | CC1(c2cnn3c2[nH]c2cc(F)cc(C(N)=O)c23)CCN(C2COC2)C1 (centres unmarked) [Example 94, 6-fluoro-3-(3-methyl-1-(oxetan-3-yl)pyrrolidin-3-yl)-4H-benzo[4,5]imidazo[1,2-b]pyrazole-8-carboxamide] | 0.001 to 0.1 µM | 0.101 to 1 µM
2 | CCN1CCC(C)(c2cnn3c2[nH]c2cc(Cl)cc(C(N)=O)c23)CC1 [Example 89, 6-chloro-3-(1-ethyl-4-methylpiperidin-4-yl)-4H-benzo[4,5]imidazo[1,2-b]pyrazole-8-carboxamide] | 0.001 to 0.1 µM | 0.101 to 1 µM
3 | CC1(c2cnn3c2[nH]c2cc(F)cc(C(N)=O)c23)CCN(CC2(O)CC2)CC1 [Example 70, 6-fluoro-3-(1-((1-hydroxycyclopropyl)methyl)-4-methylpiperidin-4-yl)-4H-benzo[4,5]imidazo[1,2-b]pyrazole-8-carboxamide] | 0.001 to 0.1 µM | 0.001 to 0.1 µM
4 | Cc1ncsc1CN1CCC(C)(c2cnn3c2[nH]c2cc(F)cc(C(N)=O)c23)CC1 [Example 83, 6-fluoro-3-(4-methyl-1-((4-methylthiazol-5-yl)methyl)piperidin-4-yl)-4H-benzo[4,5]imidazo[1,2-b]pyrazole-8-carboxamide] | 0.001 to 0.1 µM | 0.001 to 0.1 µM
5 | NC(=O)c1cc(F)cc2[nH]c3c(C45CC4CN(C4CCC4)C5)cnn3c12 (centres unmarked) [Example 30, 3-(3-cyclobutyl-3-azabicyclo[3.1.0]hexan-1-yl)-6-fluoro-4H-benzo[4,5]imidazo[1,2-b]pyrazole-8-carboxamide] | 0.001 to 0.1 µM | 0.001 to 0.1 µM
6 | CC1(c2cnn3c2[nH]c2cc(F)cc(C(N)=O)c23)CCN(CC2CCOCC2)CC1 [Example 66, 6-fluoro-3-(4-methyl-1-((tetrahydro-2H-pyran-4-yl)methyl)piperidin-4-yl)-4H-benzo[4,5]imidazo[1,2-b]pyrazole-8-carboxamide] | 0.001 to 0.1 µM | 0.001 to 0.1 µM
7 | N#Cc1cnn2c1[nH]c1cc(F)cc(C(N)=O)c12 [Example 37, 3-cyano-6-fluoro-4H-benzo[4,5]imidazo[1,2-b]pyrazole-8-carboxamide] | 0.001 to 0.1 µM | > 1 µM
8 | Cc1nn2c([nH]c3cc(F)cc(C(N)=O)c32)c1C1(C)CCN(C)CC1 [Example 115, 3-(1,4-dimethylpiperidin-4-yl)-6-fluoro-2-methyl-4H-benzo[4,5]imidazo[1,2-b]pyrazole-8-carboxamide] | 0.001 to 0.1 µM | 0.001 to 0.1 µM

More lines, now with the values ahead:

Row | IC50 (PARP-1) | EC50 (HCC1937 cells) | SMILES
9 | 0.001 to 0.1 µM | 0.101 to 1 µM | NC(=O)c1cc(F)cc2[nH]c3c(C4CCN(C5COC5)CC4)cnn3c12 [Example 11, 6-fluoro-3-(1-(oxetan-3-yl)piperidin-4-yl)-4H-benzo[4,5]imidazo[1,2-b]pyrazole-8-carboxamide]
10 | 0.001 to 0.1 µM | 0.101 to 1 µM | CC1(c2cnn3c2[nH]c2cc(F)cc(C(N)=O)c23)CCN(CC(F)(F)F)C1 (centres unmarked) [Example 97, 6-fluoro-3-(3-methyl-1-(2,2,2-trifluoroethyl)pyrrolidin-3-yl)-4H-benzo[4,5]imidazo[1,2-b]pyrazole-8-carboxamide]
11 | 0.001 to 0.1 µM | 0.101 to 1 µM | CC1(c2cnn3c2[nH]c2cc(F)cc(C(N)=O)c23)CCN(CCS(C)(=O)=O)C1 (centres unmarked) [Example 98, 6-fluoro-3-(3-methyl-1-(2-(methylsulfonyl)ethyl)pyrrolidin-3-yl)-4H-benzo[4,5]imidazo[1,2-b]pyrazole-8-carboxamide]
12 | 0.001 to 0.1 µM | 0.001 to 0.1 µM | CC1(c2cnn3c2[nH]c2cc(F)cc(C(N)=O)c23)CN(CC2CC2)C1 [Example 104, 3-(1-(cyclopropylmethyl)-3-methylazetidin-3-yl)-6-fluoro-4H-benzo[4,5]imidazo[1,2-b]pyrazole-8-carboxamide]
13 | 0.001 to 0.1 µM | 0.001 to 0.1 µM | CC(C)N1CCC(c2cnn3c2[nH]c2cc(F)cc(C(N)=O)c23)C1 (centres unmarked) [Example 22, 6-fluoro-3-(1-isopropylpyrrolidin-3-yl)-4H-benzo[4,5]imidazo[1,2-b]pyrazole-8-carboxamide]

Source: patent publication US9856262B2, “Analogues of 4H-pyrazolo[1,5-a] benzimidazole compound as PARP inhibitors” (HUBEI BIO-PHARMACEUTICAL INDUSTRIAL TECHNOLOGICAL INSTITUTE …, priority 2014, dated 2018)
